Consider 22 compounds from article PMC8781192, “An In Silico and an In Vitro Inhibition Analysis of Glycogen Phosphorylase by Flavonoids, Styrylchromones, and Pyrazoles” (Nutrients, 2022).

The target of test [1] is T1, rabbit mGPa (Oryctolagus cuniculus, UniProt P00489).
T1 construct: purchased Creative Enzymes
T1 sequence (P00489 2-843 limits assumed): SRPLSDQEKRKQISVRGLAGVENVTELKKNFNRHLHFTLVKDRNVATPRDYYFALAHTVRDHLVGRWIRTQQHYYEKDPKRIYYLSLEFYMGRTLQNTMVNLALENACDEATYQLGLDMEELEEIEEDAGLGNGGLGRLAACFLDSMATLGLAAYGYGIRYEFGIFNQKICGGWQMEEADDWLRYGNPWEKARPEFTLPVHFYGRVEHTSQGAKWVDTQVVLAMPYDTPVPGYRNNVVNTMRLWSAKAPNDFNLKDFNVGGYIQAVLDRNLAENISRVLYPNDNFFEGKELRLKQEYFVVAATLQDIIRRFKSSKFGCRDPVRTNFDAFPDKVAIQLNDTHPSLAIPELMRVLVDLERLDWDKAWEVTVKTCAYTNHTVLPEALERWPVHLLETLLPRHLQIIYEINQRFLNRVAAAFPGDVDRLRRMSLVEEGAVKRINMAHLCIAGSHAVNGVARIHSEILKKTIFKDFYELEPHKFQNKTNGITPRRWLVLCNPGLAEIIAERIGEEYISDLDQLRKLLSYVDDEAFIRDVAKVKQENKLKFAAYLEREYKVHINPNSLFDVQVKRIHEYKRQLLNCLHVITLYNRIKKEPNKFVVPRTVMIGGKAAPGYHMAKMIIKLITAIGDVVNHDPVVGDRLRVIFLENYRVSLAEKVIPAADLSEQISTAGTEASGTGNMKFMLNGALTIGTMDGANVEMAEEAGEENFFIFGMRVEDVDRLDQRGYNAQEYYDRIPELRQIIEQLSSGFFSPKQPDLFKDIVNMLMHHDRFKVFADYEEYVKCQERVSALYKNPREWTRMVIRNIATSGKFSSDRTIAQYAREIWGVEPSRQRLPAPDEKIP
Put plainly: In vitro glycogen phosphorylase inhibition assay (direction of glycogen synthesis, colorimetric phosphate). The following applies: for inhibition at 50 µM: at 50 μM (highest concentration tested), read-out: GPa inhibitory activity (%). Format: biochemical. Here is the method: The GP activity was measured using a previously optimized and validated method. In each assay, GP activity was measured by the direction of glycogen synthesis, which involved monitoring the colorimetric determination of inorganic phosphate deriving from glucose 1-phosphate. […] The enzymatic reaction was then started with the addition of a 50 mM HEPES buffer solution, with a pH of 7.2, containing 100 mM KCl, 2.5 mM MgCl2, 0.25 mM glucose 1-phosphate, and 0.25 mg/mL glycogen incubated for 30 min at 37 °C. After this incubation time, the reagent for colorimetric phosphate quantitation, BIOMOL® Green, was added to the reaction mixture. The reaction was monitored in a microplate reader (Synergy HT, BioTek Instruments, Winooski, VT, USA) at 620 nm.

For test [2], the target named is T1, rabbit mGPa. Kind of test: In vitro effect of glucose on inhibitor potency (GPa inhibition with 0, 5, 10 mM glucose). Format: biochemical. To be noted: for IC50: mean ± SEM; for inhibition at 40 µM: at 40 μM (highest concentration tested), read-out: GPa inhibitory activity (%). Here is the method: The method was performed as described in Section 2.2, with slight modifications. […] The enzymatic reaction was then started with the addition of a 50 mM HEPES buffer solution with a pH of 7.2 containing 100 mM KCl, 2.5 mM MgCl2, 0.25 mM glucose 1-phosphate, and 0.25 mg/mL glycogen. This buffer was used without glucose, or it was enriched with 5 and 10 mM of glucose and was incubated for 30 min at 37 °C in the reaction mixture. After this incubation time, BIOMOL® Green was added, and the reaction was monitored in a microplate reader (Synergy HT, BioTek Instruments, Winooski, VT, USA) at 620 nm.

The next test has as its system GP. Set-up: method as in PMID 18494482. To be noted: cited from earlier work.
Test [3] relates to rabbit mGPa and mGPb, together with human lGPa. Set-up: method as in PMID 32771768. The following applies: direction of glycogen synthesis; cited from earlier work.
Another test deals with GPb. Set-up: method as in PMID 16317787. To be noted: direction of glycogen breakdown; cited from earlier work.
Test [4] addresses T1, rabbit mGPa. Set-up: method as in PMID 16317787. The following applies: direction of glycogen breakdown; cited from earlier work.
[5] abbreviates: no glucose, mean ± SEM, read-out: GPa IC50 value.
Where [6] appears, read: 0 mM of glucose, read-out: GPa IC50 value.
[7] abbreviates: 5 mM of glucose, read-out: GPa IC50 value.
Setting [8] is: 10 mM of glucose, read-out: GPa IC50 value.
Setting [9] is: Table S2 summary of activities, read-out: IC50.

Read-outs that look alike come from different tables or passages of the source.

As usually defined, the IC50 is the concentration that inhibits the measured activity by half. With `CN(C)C(=O)[C@H](O)[C@H](Cc1ccccc1)NC(=O)c1cc2cc(Cl)ccc2[nH]1` [CP-91149, 5-chloro-N-[(1S,2R)-3-(dimethylamino)-2-hydroxy-3-oxo-1-(phenylmethyl)propyl]-1H-indole-2-carboxamide, reference compound], the IC50 came to 0.58 ± 0.09 µM on rabbit mGPa [1] (setting [5]); 0.58 ± 0.09 µM at rabbit mGPa [2] (GPa IC50 value, 0 mM of glucose); 0.39 ± 0.05 µM on rabbit mGPa [2] (GPa IC50 value, 5 mM of glucose); 0.22 ± 0.04 µM on rabbit mGPa [2] (GPa IC50 value, 10 mM of glucose).
With `O=c1cc(/C=C/C=C/c2ccc(O)c(O)c2)oc2cc(O)ccc12` [Compound 32], the IC50 came to 16.7 ± 1.5 µM at rabbit mGPa [1] (setting [5]), 16.7 ± 1.5 µM on rabbit mGPa [2] (setting [6]), 13.4 ± 1.6 µM on rabbit mGPa [2] (setting [7]) and 10.8 ± 1.2 µM on rabbit mGPa [2] (setting [8]).
For the compound `COc1cc(O)c2c(=O)cc(/C=C/C=C/c3ccc(O)c(O)c3)oc2c1` [Compound 33], the half-maximal inhibitory concentration (IC50) at rabbit mGPa [1] (setting [5]) and at rabbit mGPa [2] (setting [6]) was 15.9 ± 1.1 µM in each case. Also, the inhibition at 40 µM on rabbit mGPa [2] (5 mM of glucose) is 53.9 ± 2.5%; at rabbit mGPa [2] (10 mM of glucose), below 30%.
Consider `COc1ccc2c(=O)cc(/C=C/C=C/c3ccc(O)c(O)c3)oc2c1` [Compound 34], for which the inhibition at 50 µM on rabbit mGPa [1] (mean ± SEM) turned out to be 51.9 ± 1.8%.
In the case of `COc1ccc2c(=O)cc(/C=C/C=C/c3ccc(OC)c(OC)c3)oc2c1` [Compound 35], at rabbit mGPa [1] (mean ± SEM), the inhibition at 50 µM was 35.8 ± 4.6%.
On the same count and under the same terms, the figure for `O=c1cc(-c2ccccc2)oc2cc(O)ccc12` [Compound 36] is below 30%; for `O=c1cc(-c2ccc(O)cc2)oc2cc(O)ccc12` [Compound 37] it is below 30%.
As to `O=c1cc(-c2ccccc2)oc2cc(O)cc(O)c12` [Compound 38, Chrysin], the IC50 in the test on GP was above 200 µM; at rabbit mGPa [1] (setting [5]), 19.3 ± 1.5 µM; at rabbit mGPa [2] (setting [6]), 19.3 ± 1.5 µM; on rabbit mGPa [2] (setting [7]), 8.8 ± 0.8 µM; on rabbit mGPa [2] (setting [8]), 5.2 ± 0.3 µM; in the test with GPb, 15.3 ± 1 µM. Moreover, the IC50 on rabbit mGPa [4] was 27.5 µM. The “potency relative to flavonoid 45, quercetin” value in test [3] was around 10 fold.
Regarding `O=c1cc(-c2ccc(O)c(O)c2)oc2ccccc12` [Compound 39], the concentration for half-maximal inhibition (IC50) on rabbit mGPa [1] (setting [9]) is above 50 µM. In addition, on rabbit mGPa [1] (mean ± SEM), the inhibition at 50 µM was below 30%.
On the same counts, the results for `O=c1cc(-c2ccc(O)c(O)c2)oc2cc(O)ccc12` [Compound 40] are above 50 µM and below 30%.
For `O=c1cc(-c2ccc(O)c(O)c2)oc2cccc(O)c12` [Compound 41], in that order: above 50 µM and below 30%.
On to `O=c1cc(-c2ccc(O)cc2)oc2cc(O)cc(O)c12` [Compound 42, Apigenin], for which the inhibition at 50 µM at rabbit mGPa [1] (mean ± SEM) was determined as 35.7 ± 2.1%.
Take `O=c1cc(-c2ccc(O)c(O)c2)oc2cc(O)cc(O)c12` [Compound 43, Luteolin]: at rabbit mGPa [1] (setting [9]), the IC50 was above 50 µM. Besides, the inhibition at 50 µM at rabbit mGPa [1] (mean ± SEM) is below 30%.
`O=c1c(O)c(-c2ccccc2)oc2cc(O)cc(O)c12` [Compound 44, Galangin]: the inhibition at 50 µM on rabbit mGPa [1] (mean ± SEM) is below 30%.
Take `O=c1c(O)c(-c2ccc(O)c(O)c2)oc2cc(O)cc(O)c12` [Compound 45, Quercetin]: the IC50 on rabbit mGPa [1] (setting [9]) is above 50 µM. At rabbit mGPa [1] (mean ± SEM), the inhibition at 50 µM is below 30%.
For `O=c1cc(-c2ccccc2)oc2c(O)c(O)cc(O)c12` [Compound 46, Norwogonin], the half-maximal inhibitory concentration (IC50) on rabbit mGPa [1] (setting [5]) is 13.2 ± 1.4 µM; on rabbit mGPa [2] (setting [6]), 13.2 ± 1.4 µM; at rabbit mGPa [2] (setting [7]), 8.9 ± 1 µM; on rabbit mGPa [2] (setting [8]) it was 3.7 ± 0.5 µM.
For `O=c1cc(-c2ccccc2)oc2cc(O)c(O)c(O)c12` [Compound 47, Baicalein], the half-inhibitory concentration (IC50) is 23.5 ± 2.9 µM at rabbit mGPa [1] (setting [5]), 10.2 ± 1.2 µM in the test with GPb and 11.2 ± 1.5 µM at rabbit mGPa [4].
On to `O=c1cc(-c2ccc(O)cc2)oc2cc(O)c(O)c(O)c12` [Compound 48, Scutellarein], for which the half-maximal inhibitory concentration (IC50) on rabbit mGPa [1] (setting [9]) was above 50 µM. Besides, on rabbit mGPa [1] (mean ± SEM), the inhibition at 50 µM was below 30%.
As for `O=C(O)[C@H]1O[C@@H](Oc2cc3oc(-c4ccccc4)cc(=O)c3c(O)c2O)[C@H](O)[C@@H](O)[C@@H]1O` [Compound 49, Baicalin], the half-inhibitory concentration (IC50) at rabbit mGPa [1] (setting [5]) came to 20.5 ± 2.5 µM.
For the compound `O=c1c(O)c(-c2ccc(O)c(O)c2)oc2cc(O)c(O)c(O)c12` [Compound 50, Quercetagetin], the half-maximal inhibitory concentration (IC50) on rabbit mGPa [1] (setting [9]) is above 50 µM. At rabbit mGPa [1] (mean ± SEM), the inhibition at 50 µM was below 30%.
On to `COc1cc2oc(-c3ccccc3)cc(=O)c2c(O)c1O` [Compound 51, Baicalein-7-methylether], for which, on rabbit mGPa [1] (setting [5]), the IC50 is 22.6 ± 0.4 µM.
As to `COc1cc2oc(-c3ccccc3)cc(=O)c2c(OC)c1OC` [Compound 52, Baicalein-5,6,7-trimethylether], the inhibition at 50 µM at rabbit mGPa [1] (mean ± SEM) is below 30%.
